Measurements: US12077503B2, “Substituted cyclic amides and their use as herbicides” (FMC CORPORATION, priority 2015, dated 2024)

Tests used:
Format in all cases: in vivo
[1] = system: Galium (catchweed bedstraw, Galium aparine); assay: Test A postemergence; conditions: Galium, post-emergence, 240 h, 125 g ai/ha, Postemergence; visual injury after approximately 10 d; 0 to 100 scale where 0 is no effect and 100 is complete control; read-out: Plant response rating, Galium
Outline: (§1)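 Preemergence directed soil spray on seeded pots, or postemergence application to plants 2–10 cm, one- to two-leaf. Solvent mixture non-phytotoxic, with surfactant. Scored ~10 d later, visually, 0–100 vs untreated.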

[2] = system: ryegrass, Italian (Italian ryegrass, Lolium multiflorum); assay: Test A postemergence; conditions: Lolium multiflorum, post-emergence, 240 h, 125 g ai/ha, Postemergence; visual injury after approximately 10 d; 0 to 100 scale where 0 is no effect and 100 is complete control; read-out: Plant response rating, Ryegrass, Italian
Outline: as §1

corn (Zea mays) = assay: Test A postemergence; conditions: Zea mays, post-emergence, 240 h, 125 g ai/ha, Postemergence; visual injury after approximately 10 d; 0 to 100 scale where 0 is no effect and 100 is complete control
Outline: as §1

[3] = system: ragweed (common ragweed, Ambrosia elatior); assay: Test A postemergence; conditions: Ambrosia artemisiifolia, post-emergence, 240 h, 125 g ai/ha, Postemergence; visual injury after approximately 10 d; 0 to 100 scale where 0 is no effect and 100 is complete control; read-out: Plant response rating, Ragweed
Outline: as §1

Kochia (Kochia scoparia) [4] = assay: Test A postemergence; conditions: Bassia scoparia, post-emergence, 240 h, 125 g ai/ha, Postemergence; visual injury after approximately 10 d; 0 to 100 scale where 0 is no effect and 100 is complete control; read-out: Plant response rating, Kochia
Outline: as §1

[5] = system: barnyardgrass (Echinochloa crus-galli); assay: Test A postemergence; conditions: Echinochloa crus-galli, post-emergence, 240 h, 125 g ai/ha, Postemergence; visual injury after approximately 10 d; 0 to 100 scale where 0 is no effect and 100 is complete control; read-out: Plant response rating, Barnyardgrass
Outline: as §1

[6] = system: giant foxtail (Setaria faberii); assay: Test A postemergence; conditions: Setaria faberi, post-emergence, 240 h, 125 g ai/ha, Postemergence; visual injury after approximately 10 d; 0 to 100 scale where 0 is no effect and 100 is complete control; read-out: Plant response rating, Foxtail, Giant
Outline: as §1

[7] = system: blackgrass (Alopecurus myosuroides); assay: Test A postemergence; conditions: Alopecurus myosuroides, post-emergence, 240 h, 125 g ai/ha, Postemergence; visual injury after approximately 10 d; 0 to 100 scale where 0 is no effect and 100 is complete control; read-out: Plant response rating, Blackgrass
Outline: as §1

[8] = system: wheat (Triticum aestivum); assay: Test A postemergence; conditions: Triticum aestivum, post-emergence, 240 h, 125 g ai/ha, Postemergence; visual injury after approximately 10 d; 0 to 100 scale where 0 is no effect and 100 is complete control; read-out: Plant response rating, Wheat
Outline: as §1

[9] = system: pigweed (Amaranthus retroflexus); assay: Test A postemergence; conditions: Amaranthus retroflexus, post-emergence, 240 h, 125 g ai/ha, Postemergence; visual injury after approximately 10 d; 0 to 100 scale where 0 is no effect and 100 is complete control; read-out: Plant response rating, Pigweed
Outline: as §1

rice (Oryra sativa) = assay: Test B flooded paddy test; conditions: Oryza sativa, Flood, 250 g ai/ha; scale of 0 to 100 where 0 is no effect and 100 is complete control; read-out: Rice plant response rating
Outline: (§2)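 Greenhouse paddy pots with 2-leaf stage plants received compound by direct addition to floodwater 3 cm deep, kept at that level. Scored visually at 13–15 d versus controls (0 no effect; 100 complete control).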

[10] = system: barnyardgrass (Echinochloa crus-galli); assay: Test B flooded paddy test; conditions: Echinochloa crus-galli, Flood, 250 g ai/ha; scale of 0 to 100 where 0 is no effect and 100 is complete control; read-out: Barnyardgrass plant response rating
Outline: as §2

[11] = system: sedge, umbrella (small-flower umbrella sedge, Cyperus difformis); assay: Test B flooded paddy test; conditions: Cyperus difformis, Flood, 250 g ai/ha; scale of 0 to 100 where 0 is no effect and 100 is complete control; read-out: Sedge, Umbrella plant response rating
Outline: as §2

[12] = system: ducksalad (Heteranthera limosa); assay: Test B flooded paddy test; conditions: Heteranthera limosa, Flood, 250 g ai/ha; scale of 0 to 100 where 0 is no effect and 100 is complete control; read-out: Ducksalad plant response rating
Outline: as §2

[13] = system: ryegrass, Italian (Italian ryegrass, Lolium multiflorum); assay: Test A preemergence; conditions: Lolium multiflorum, pre-emergence, 240 h; for pest or weed control at 125 g/ha: 125 g ai/ha, Preemergence, visual injury rating after approximately 10 d, read-out: Ryegrass, Italian plant response rating (0 to 100 scale, 0 is no effect, 100 is complete control); for pest or weed control at 500 g/ha: 500 g ai/ha, preemergence, visual injury rating about 10 d after treatment, 0 to 100 scale (0 no effect, 100 complete control), read-out: Ryegrass, Italian plant response rating
Outline: as §1

[14] = system: ragweed (common ragweed, Ambrosia elatior); assay: Test A preemergence; conditions: Ambrosia artemisiifolia, pre-emergence, 240 h; for pest or weed control at 125 g/ha: 125 g ai/ha, Preemergence, visual injury rating after approximately 10 d, read-out: Ragweed plant response rating (0 to 100 scale, 0 is no effect, 100 is complete control); for pest or weed control at 500 g/ha: 500 g ai/ha, preemergence, visual injury rating about 10 d after treatment, 0 to 100 scale (0 no effect, 100 complete control), read-out: Ragweed plant response rating
Outline: as §1

Kochia (Kochia scoparia) [15] = assay: Test A preemergence; conditions: Bassia scoparia, pre-emergence, 240 h; for pest or weed control at 125 g/ha: 125 g ai/ha, Preemergence, visual injury rating after approximately 10 d, read-out: Kochia plant response rating (0 to 100 scale, 0 is no effect, 100 is complete control); for pest or weed control at 500 g/ha: 500 g ai/ha, preemergence, visual injury rating about 10 d after treatment, 0 to 100 scale (0 no effect, 100 complete control), read-out: Kochia plant response rating
Outline: as §1

[16] = system: barnyardgrass (Echinochloa crus-galli); assay: Test A preemergence; conditions: Echinochloa crus-galli, pre-emergence, 240 h; for pest or weed control at 125 g/ha: 125 g ai/ha, Preemergence, visual injury rating after approximately 10 d, read-out: Barnyardgrass plant response rating (0 to 100 scale, 0 is no effect, 100 is complete control); for pest or weed control at 500 g/ha: 500 g ai/ha, preemergence, visual injury rating about 10 d after treatment, 0 to 100 scale (0 no effect, 100 complete control), read-out: Barnyardgrass plant response rating
Outline: as §1

[17] = system: giant foxtail (Setaria faberii); assay: Test A preemergence; conditions: Setaria faberi, pre-emergence, 240 h; for pest or weed control at 125 g/ha: 125 g ai/ha, Preemergence, visual injury rating after approximately 10 d, read-out: Foxtail, Giant plant response rating (0 to 100 scale, 0 is no effect, 100 is complete control); for pest or weed control at 500 g/ha: 500 g ai/ha, preemergence, visual injury rating about 10 d after treatment, 0 to 100 scale (0 no effect, 100 complete control), read-out: Foxtail, Giant plant response rating
Outline: as §1

[18] = system: pigweed (Amaranthus retroflexus); assay: Test A preemergence; conditions: Amaranthus retroflexus, pre-emergence, 240 h; for pest or weed control at 125 g/ha: 125 g ai/ha, Preemergence, visual injury rating after approximately 10 d, read-out: Pigweed plant response rating (0 to 100 scale, 0 is no effect, 100 is complete control); for pest or weed control at 500 g/ha: 500 g ai/ha, preemergence, visual injury rating about 10 d after treatment, 0 to 100 scale (0 no effect, 100 complete control), read-out: Pigweed plant response rating

Compound | pest or weed control at 125 g/ha [1] | pest or weed control at 125 g/ha [2] | Corn plant response rating (crop injury, 0 = no effect, 100 = complete kill) at 125 g/ha (corn (Zea mays)) | pest or weed control at 125 g/ha [3] | pest or weed control at 125 g/ha (Kochia (Kochia scoparia) [4]) | pest or weed control at 125 g/ha [5] | pest or weed control at 125 g/ha [6] | pest or weed control at 125 g/ha [7] | plant injury at 125 g/ha [8] | pest or weed control at 125 g/ha [9] | pest or weed control at 250 g/ha (rice (Oryra sativa)) | pest or weed control at 250 g/ha [10] | pest or weed control at 250 g/ha [11] | pest or weed control at 250 g/ha [12] | pest or weed control at 125 g/ha [13] | pest or weed control at 500 g/ha [13] | pest or weed control at 125 g/ha [14] | pest or weed control at 500 g/ha [14] | pest or weed control at 125 g/ha (Kochia (Kochia scoparia) [15]) | pest or weed control at 500 g/ha (Kochia (Kochia scoparia) [15]) | other results
CCOc1cccc([C@H]2CNC(=O)[C@@H]2C(=O)Nc2cccc(F)c2F)c1 [Compound 950] | 20% | 20% | 0% | 0% | 0% | 90% | 0% | 0% | 0% | 0% | 0% | 65% | 0% | 95% | 20% | 70% | 0% | 20% | 50% | 60% | pest or weed control at 125 g/ha [16]: 100%; pest or weed control at 500 g/ha [16]: 100%; pest or weed control at 125 g/ha [17]: 60%; pest or weed control at 500 g/ha [17]: 90%; pest or weed control at 125 g/ha [18]: 0%; pest or weed control at 500 g/ha [18]: 0%
CCOc1cccc([C@H]2CNC(=O)[C@@H]2C(=O)Nc2ccc(F)cc2F)c1 [Compound 951] | 0% | 0% | 0% | 0% | 0% | 70% | 0% | 0% | 0% | 0% | 0% | 30% | 0% | 90% | 0% | 0% | 0% | 0% | 0% | 20% | pest or weed control at 125 g/ha [16]: 90%; pest or weed control at 500 g/ha [16]: 90%; pest or weed control at 125 g/ha [17]: 70%; pest or weed control at 500 g/ha [17]: 70%; pest or weed control at 125 g/ha [18]: 0%; pest or weed control at 500 g/ha [18]: 0%
CCOc1cccc([C@H]2CN(C)C(=O)[C@@H]2C(=O)Nc2ccccc2F)c1 [Compound 955] | 20% | 30% | 0% | 0% | 20% | 90% | 80% | 0% | 0% | 0% | 0% | 70% | 0% | 90% | 70% | 60% | 0% | 30% | 30% | 70% | pest or weed control at 125 g/ha [16]: 100%; pest or weed control at 500 g/ha [16]: 100%; pest or weed control at 125 g/ha [17]: 100%; pest or weed control at 500 g/ha [17]: 100%; pest or weed control at 125 g/ha [18]: 0%; pest or weed control at 500 g/ha [18]: 0%
O=C1NC[C@H](c2csc(C(F)(F)F)c2)[C@H]1C(=O)Nc1cccc(F)c1F [Compound 957] | 40% | 20% | 0% | 0% | 20% | 80% | 0% | 20% | 0% | 0% | 0% | 30% | 0% | 100% | 0% | 40% | 0% | 30% | 30% | 80% | pest or weed control at 125 g/ha [16]: 70%; pest or weed control at 500 g/ha [16]: 100%; pest or weed control at 125 g/ha [17]: 20%; pest or weed control at 500 g/ha [17]: 70%; pest or weed control at 125 g/ha [18]: 20%; pest or weed control at 500 g/ha [18]: 20%
